ChEMBL document CHEMBL3885881, “DrugMatrix”

Organism: Rattus norvegicus
Assay: DrugMatrix - Regimen: Daily Repeat
Type: toxicity, organism-based, Sprague-Dawley
Design: regimen Daily Repeat, gender Male, age 6-8 weeks
Conditions: in vivo, po, route oral GAVAGE, vehicle 100 % SALINE; for ABSOLUTE BASOPHIL / ABSOLUTE EOSINOPHIL / ABSOLUTE LYMPHOCYTE / ABSOLUTE MONOCYTE / ABSOLUTE SEGMENTED NEUTROPHIL / BASOPHIL / EOSINOPHIL / ERYTHROCYTE COUNT / HEMATOCRIT / HEMOGLOBIN / LEUKOCYTE COUNT / LYMPHOCYTE / MEAN CORPUSCULAR HEMOGLOBIN / MEAN CORPUSCULAR HEMOGLOBIN CONCENTRATION / MONOCYTE / NEUTROPHIL / NUCLEATED RED BLOOD CELLS / PLATELET COUNT: tissue Blood; for ALANINE AMINOTRANSFERASE / ALBUMIN / ALKALINE PHOSPHATASE / ASPARTATE AMINOTRANSFERASE / BLOOD UREA NITROGEN / CARBON DIOXIDE / CHOLESTEROL / CREATINE PHOSPHOKINASE / CREATININE / GLUCOSE / LACTATE DEHYDROGENASE / LIPASE / POTASSIUM / SODIUM / TOTAL BILIRUBIN / TOTAL PROTEIN / URIC ACID: tissue Plasma
[1] = 330 mg/kg, 120 h, dose level Low, time 5 day
[2] = 980 mg/kg, 72 h, dose level High, time 3 day
[3] = 980 mg/kg, 120 h, dose level High, time 5 day

`Nc1nc2c(ncn2COCCO)c(=O)[nH]1` [ACYCLOVIR] was tested, and the “ABSOLUTE BASOPHIL” value [1] was 0 CELLS/uL, the “ABSOLUTE EOSINOPHIL” value [1] was 23.33 CELLS/uL and the “ABSOLUTE LYMPHOCYTE” value [1] was 6827.33 CELLS/uL. For the same molecule, the “ABSOLUTE MONOCYTE” value [1] was 23.33 CELLS/uL, the “ABSOLUTE SEGMENTED NEUTROPHIL” value [1] was 459.33 CELLS/uL and the BASOPHIL [1] was 0%. The EOSINOPHIL [1] was 0.33%, the “ERYTHROCYTE COUNT” value [1] was 5.77 x10E6/uL and the HEMATOCRIT [1] was 36%. The HEMOGLOBIN [1] was 13.93 G/DL, the “LEUKOCYTE COUNT” value [1] was 7.33 x10E3/uL and the LYMPHOCYTE [1] was 92.67%. For the same molecule, the “MEAN CORPUSCULAR HEMOGLOBIN” value [1] was 24.17 pg, the “MEAN CORPUSCULAR HEMOGLOBIN CONCENTRATION” value [1] was 38.7 G/DL and the MONOCYTE [1] was 0.33%. For the same molecule, the NEUTROPHIL [1] was 6.67%, the “NUCLEATED RED BLOOD CELLS” value [1] was 0 /100WBC and the “PLATELET COUNT” value [1] was 980.67 x10E3/uL. For the same molecule, the “ALANINE AMINOTRANSFERASE” value [1] was 54 u/L, the ALBUMIN [1] was 4.1 G/DL and the “ALKALINE PHOSPHATASE” value [1] was 310 u/L. For the same molecule, the “ASPARTATE AMINOTRANSFERASE” value [1] was 89.33 u/L, the “BLOOD UREA NITROGEN” value [1] was 14 mg/dL and the “CARBON DIOXIDE” value [1] was 31 mmol/L. For the same molecule, the CHOLESTEROL [1] was 71.33 mg/dL, the “CREATINE PHOSPHOKINASE” value [1] was 331 u/L and the CREATININE [1] was 0.35 mg/dL. The GLUCOSE [1] was 149.67 mg/dL, the “LACTATE DEHYDROGENASE” value [1] was 119.33 u/L and the LIPASE [1] was 11.67 u/L. For the same molecule, the POTASSIUM [1] was 6.3 MEQ/L, the SODIUM [1] was 145.23 MEQ/L and the “TOTAL BILIRUBIN” value [1] was 0.17 mg/dL. For the same molecule, the “TOTAL PROTEIN” value [1] was 5.87 G/DL, the “URIC ACID” value [1] was 0.97 mg/dL and the “ABSOLUTE BASOPHIL” value [2] was 0 CELLS/uL. For the same molecule, the “ABSOLUTE EOSINOPHIL” value [2] was 28.33 CELLS/uL, the “ABSOLUTE LYMPHOCYTE” value [2] was 6898 CELLS/uL and the “ABSOLUTE MONOCYTE” value [2] was 45.67 CELLS/uL. For the same molecule, the “ABSOLUTE SEGMENTED NEUTROPHIL” value [2] was 428 CELLS/uL, the BASOPHIL [2] was 0% and the EOSINOPHIL [2] was 0.33%. For the same molecule, the “ERYTHROCYTE COUNT” value [2] was 5.27 x10E6/uL, the HEMATOCRIT [2] was 32.97% and the HEMOGLOBIN [2] was 12.8 G/DL. For the same molecule, the “LEUKOCYTE COUNT” value [2] was 7.4 x10E3/uL, the LYMPHOCYTE [2] was 93% and the “MEAN CORPUSCULAR HEMOGLOBIN” value [2] was 24.37 pg. The “MEAN CORPUSCULAR HEMOGLOBIN CONCENTRATION” value [2] was 38.87 G/DL, the MONOCYTE [2] was 0.67% and the NEUTROPHIL [2] was 6%. The “NUCLEATED RED BLOOD CELLS” value [2] was 0 /100WBC, the “PLATELET COUNT” value [2] was 1125.67 x10E3/uL and the “ALANINE AMINOTRANSFERASE” value [2] was 47.33 u/L. For the same molecule, the ALBUMIN [2] was 4.07 G/DL, the “ALKALINE PHOSPHATASE” value [2] was 321 u/L and the “ASPARTATE AMINOTRANSFERASE” value [2] was 79.33 u/L. For the same molecule, the “BLOOD UREA NITROGEN” value [2] was 12.67 mg/dL, the “CARBON DIOXIDE” value [2] was 28.33 mmol/L and the CHOLESTEROL [2] was 67.33 mg/dL. For the same molecule, the “CREATINE PHOSPHOKINASE” value [2] was 458 u/L, the CREATININE [2] was 0.23 mg/dL and the GLUCOSE [2] was 154 mg/dL. For the same molecule, the “LACTATE DEHYDROGENASE” value [2] was 123 u/L, the LIPASE [2] was 9.67 u/L and the POTASSIUM [2] was 5.85 MEQ/L. The SODIUM [2] was 142.43 MEQ/L, the “TOTAL BILIRUBIN” value [2] was 0.17 mg/dL and the “TOTAL PROTEIN” value [2] was 5.77 G/DL. The “URIC ACID” value [2] was 0.9 mg/dL, the “ABSOLUTE BASOPHIL” value [3] was 0 CELLS/uL and the “ABSOLUTE EOSINOPHIL” value [3] was 32 CELLS/uL. For the same molecule, the “ABSOLUTE LYMPHOCYTE” value [3] was 9269.33 CELLS/uL, the “ABSOLUTE MONOCYTE” value [3] was 115 CELLS/uL and the “ABSOLUTE SEGMENTED NEUTROPHIL” value [3] was 383.67 CELLS/uL. For the same molecule, the BASOPHIL [3] was 0%, the EOSINOPHIL [3] was 0.33% and the “ERYTHROCYTE COUNT” value [3] was 5.83 x10E6/uL. For the same molecule, the HEMATOCRIT [3] was 35.13%, the HEMOGLOBIN [3] was 13.9 G/DL and the “LEUKOCYTE COUNT” value [3] was 9.8 x10E3/uL. The LYMPHOCYTE [3] was 94.33%, the “MEAN CORPUSCULAR HEMOGLOBIN” value [3] was 23.83 pg and the “MEAN CORPUSCULAR HEMOGLOBIN CONCENTRATION” value [3] was 39.6 G/DL. For the same molecule, the MONOCYTE [3] was 1.33%, the NEUTROPHIL [3] was 4% and the “NUCLEATED RED BLOOD CELLS” value [3] was 0.33 /100WBC. The “PLATELET COUNT” value [3] was 783 x10E3/uL, the “ALANINE AMINOTRANSFERASE” value [3] was 46.67 u/L and the ALBUMIN [3] was 4.17 G/DL. The “ALKALINE PHOSPHATASE” value [3] was 320.33 u/L, the “ASPARTATE AMINOTRANSFERASE” value [3] was 74 u/L and the “BLOOD UREA NITROGEN” value [3] was 15.67 mg/dL. For the same molecule, the “CARBON DIOXIDE” value [3] was 29.33 mmol/L, the CHOLESTEROL [3] was 57.67 mg/dL and the “CREATINE PHOSPHOKINASE” value [3] was 253.33 u/L. For the same molecule, the CREATININE [3] was 0.44 mg/dL, the GLUCOSE [3] was 155.67 mg/dL and the “LACTATE DEHYDROGENASE” value [3] was 135.67 u/L. The LIPASE [3] was 12 u/L, the POTASSIUM [3] was 5.65 MEQ/L and the SODIUM [3] was 145.17 MEQ/L. For the same molecule, the “TOTAL BILIRUBIN” value [3] was 0.17 mg/dL, the “TOTAL PROTEIN” value [3] was 5.83 G/DL and the “URIC ACID” value [3] was 0.83 mg/dL.
